Test results published in patent publication US20230150929A1, “SELECTIVE NON-CYCLIC NUCLEOTIDE ACTIVATORS FOR THE CAMP SENSOR EPAC1” (The Board of Regents of The University of Texas System, priority 2020, published 2023).

How the values were obtained:
EPAC1-CNBD = target: T1, EPAC1-CNBD (Homo sapiens, UniProt O95398); test: 8-NBD-cAMP competition binding assay, EPAC1-CNBD; details: for IC50 values as EPAC1 binders (in words): summary statement
T1 sequence (O95398 169-318 isoform O95398-3): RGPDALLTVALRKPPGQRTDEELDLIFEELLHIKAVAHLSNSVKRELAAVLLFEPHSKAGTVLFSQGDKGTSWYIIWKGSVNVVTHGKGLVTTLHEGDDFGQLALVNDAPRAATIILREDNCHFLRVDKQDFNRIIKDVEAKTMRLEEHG

EPAC1 [1] = target: T2, EPAC1 (Homo sapiens, UniProt O95398); test: Active Rap1 pull-down in U2OS cells stably transfected with EPAC1; type: cell-based; design: expressed in transfected cells; host or cells: U2OS cells (from Professor Holger Rehmann, University of Utrecht); details: for selectivity: ability to activate EPAC1 over EPAC2 (ratio of EPAC1 to EPAC2 activation): densitometry of Rap1-GTP immunoblots, U2OS-EPAC1 vs U2OS-EPAC2, FIG. 8
T2 sequence (O95398 1-923): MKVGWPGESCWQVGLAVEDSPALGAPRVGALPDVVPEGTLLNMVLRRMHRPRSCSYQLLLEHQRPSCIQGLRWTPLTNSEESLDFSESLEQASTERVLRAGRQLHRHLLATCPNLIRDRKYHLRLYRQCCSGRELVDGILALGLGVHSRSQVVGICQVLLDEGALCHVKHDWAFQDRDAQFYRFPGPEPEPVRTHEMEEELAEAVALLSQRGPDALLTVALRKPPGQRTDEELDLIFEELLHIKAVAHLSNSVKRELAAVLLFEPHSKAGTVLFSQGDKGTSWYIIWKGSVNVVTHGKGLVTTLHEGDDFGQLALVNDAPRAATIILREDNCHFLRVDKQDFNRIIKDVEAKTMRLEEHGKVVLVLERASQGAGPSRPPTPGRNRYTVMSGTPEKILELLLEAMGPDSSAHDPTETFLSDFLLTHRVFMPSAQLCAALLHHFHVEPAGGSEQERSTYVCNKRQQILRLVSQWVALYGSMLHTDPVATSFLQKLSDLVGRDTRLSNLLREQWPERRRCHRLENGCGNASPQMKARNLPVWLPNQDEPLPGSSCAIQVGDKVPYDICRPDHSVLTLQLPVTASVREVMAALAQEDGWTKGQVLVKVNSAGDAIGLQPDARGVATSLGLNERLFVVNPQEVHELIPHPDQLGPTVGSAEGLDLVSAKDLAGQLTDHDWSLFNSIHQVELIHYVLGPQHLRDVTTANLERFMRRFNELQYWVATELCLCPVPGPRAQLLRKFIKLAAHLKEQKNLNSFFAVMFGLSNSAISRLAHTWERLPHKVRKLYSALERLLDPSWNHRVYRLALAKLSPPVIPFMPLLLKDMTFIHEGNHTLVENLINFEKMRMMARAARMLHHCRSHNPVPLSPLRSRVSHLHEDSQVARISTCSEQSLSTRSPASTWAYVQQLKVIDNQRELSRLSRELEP
Method: (§1) Series Expansion and EPAC1 vs EPAC2 Selectivity. GEF assay was used to further screen all newly synthesis analogues at 10 µM, to identify additional activating compounds to expand the series of EPAC1 agonists (FIG. 6). […] Having now identified an expanded exemplary series of compounds as potential EPAC1 activators the ability of 25e, 25f, 25g, 25n and 25u to activate EPAC1 and EPAC2 in cellular Rap1 activation assays (FIG. 7) were compared. For these U2OS cells transfected with either EPAC1 or EPAC2 (FIG. 7) was used. […] Densitometry was carried out on all immunoblots and the ratio of EPAC1 to EPAC2 activation was calculated and presented in a bar graph in FIG. 8.
Active Rap1 Pull-down. U2OS cells (from Professor Holger Rehmann, University of Utrecht) stably transfected with EPAC1 or EPAC2 were cultured in 6-well plates in DMEM, high glucose, supplemented with 10% (v/v) FBS, 1% (v/v) GlutaMAX, 1% (v/v) Penicillin-Streptomycin and 2 mg/l puromycin (to ensure selection of stable transfectants). 80% confluent cells were starved in culture medium with reduced FBS concentration (0.5 %) for 16 h and then stimulated for 10 min with either vehicle, 100 µM of studied compounds, or 50 µM of 2 in case of U2OS-EPAC1 or 100 µM of compound 4 for U2OS-EPAC2. Cells were then rinsed with ice-cold PBS and lysed in 0.5 ml cell lysis buffer (Cell Signaling Technologies) supplemented with 10 mM MgCl2 and 1 mM PMSF, followed by clearing the lysates by centrifugation. Cell lysates were incubated for 1 h (4° C., gentle agitation) with 40 µg GST-RalGDS-RBD immobilized on Glutathione Sepharose 4B (GE Healthcare) to selectively capture GTP-bound Rap1. Later on, the glutathione resin was separated from supernatant by centrifugation, washed three times with cell lysis buffer, then resuspended in 2x SDS sample loading buffer and denatured for 5 min at 95° C.
(§2) SDS-PAGE and Western Blotting. Samples were prepared by mixing equal volumes of cell lysate and 2x SDS sample loading buffer and denaturing for 5 min at 95° C., unless indicated otherwise. Protein samples were separated by SDS-PAGE on 10% (v/v) polyacrylamide gels, for EPAC1 and VASP, or on 12.5% (v/v), for Rap1, and then transferred to nitrocellulose membranes. Membranes were then blocked for 1 h at room temperature in 5% (w/v) non-fat dry milk or 5% (w/v) BSA in Tris-buffered saline containing 0.1% (v/v) Tween 20, followed by an overnight incubation with primary antibody diluted in blocking buffer at 4° C. Subsequently, the membranes were incubated with appropriate horseradish peroxidase-conjugated secondary antibodies for 1 h at room temperature. For signal detection the SuperSignal West Pico PLUS Chemiluminescent Substrate (Thermo Scientific) was used. Images were acquired using the Fusion FX7 camera platform (Vilber). Densitometry was performed with ImageJ.

PKA = PKA activation (VASP phosphorylation, western blot) in U2OS-EPAC1 cells; type: cell-based; details: 100 µM test compound, FIG. 5
Method: FIG. 5. PKA activation results of representative newly discovered EPAC1 agonists. U2OS cells stably transfected with EPAC1 were treated with 100 µM of test compounds, cyclic nucleotide EPAC1 agonist 2 or 10 µM of forskolin and rolipram (F/R), cyclic AMP elevating agents, as a positive control. Active, phosphorylated VASP (P-VASP) was visualized using a phospho-specific, anti-VASP antibody. None of the test compounds promoted VASP phosphorylation in cells.
PKA and GPCR Selectivity. To investigate the EPAC selectivity of these EPAC agonists, compounds 25g, 25n and 25q were selected for further PKA activation studies, and the results are shown in FIG. 5. PKA activation was assessed by monitoring phosphorylation state of a downstream PKA effector, vasodilator-stimulated phosphoprotein (VASP).
as §2

EPAC1 [2] = target: T2, EPAC1; test: In vitro GEF screen (EPAC1 activation assay); type: biochemical; design: expressed in transfected cells; host or cells: U2OS cells (from Professor Holger Rehmann, University of Utrecht); details: 10 µM, FIG. 6
Method: FIGS. 6A-B. Identification of compounds including 25g (PW0381) 25q (PW0521) 25n (PW0577), 25u (PW0606), 25e (PW0624) and 25f (PW0625) as EPAC1 activators in an in vitro GEF screen. […] Selected compounds have been highlighted as indicated.
as §1

Compound	RFI (%) (relative fluorescence intensity), Table 4 (EPAC1-CNBD; compound 10 µM, EPAC1-CNBD 0.8 µM, 8-NBD-cAMP 62.5 nM, mean ± SEM, lower RFI = stronger binding)	IC50 values as EPAC1 binders (in words) (EPAC1-CNBD)	selectivity: ability to activate EPAC1 over EPAC2 (ratio of EPAC1 to EPAC2 activation) (EPAC1 [1])	PKA activation (VASP phosphorylation) (PKA)	EPAC1 activity in GEF assay (EPAC1 [2])	Rap1 activation in EPAC1 cells (EPAC1 [1]; U2OS-EPAC1, 100 µM compound, 10 min, FIG. 7)
Nc1ccc(S(=O)(=O)NC(=O)COc2ccc3ccccc3c2)cc1F [Compound 25f, N-((4-Amino-3-fluorophenyl)sulfonyl)-2-(naphthalen-2-yloxy)acetamide]	81 ± 8	low micromolar to sub-micromolar	best selectivity	unable to activate PKA	promote EPAC1 activity more effectively than 25g, 25n and 25q	–
O=C(COc1ccc2ccccc2c1)NS(=O)(=O)c1ccc([N+](=O)[O-])c(F)c1 [Compound 25e, N-((3-Fluoro-4-nitrophenyl)sulfonyl)-2-(naphthalen-2-yloxy)acetamide]	–	low micromolar to sub-micromolar	best selectivity	unable to activate PKA	promote EPAC1 activity more effectively than 25g, 25n and 25q	roughly equivalent to the positive control
